# US10011615B2, “Heterobicyclo-substituted [1,2,4]triazolo[1,5-c]quinazolin-5-amine compounds with A2A anatagonist properties” (Merck Sharp & Dohme Corp., priority 2012, dated 2018)
# Values joined by “and” are separate entries in the source; they are usually repeats but may differ in a detail not shown here. Identical values can stand only once.
# Molecular target: T1, human A2a receptor (Homo sapiens, UniProt P29274)
# T1 construct: purchased Perkin-Elmer RBHA2AM400UA; host or cells: HEK293 cell membranes
# T1 sequence (P29274 whole entry): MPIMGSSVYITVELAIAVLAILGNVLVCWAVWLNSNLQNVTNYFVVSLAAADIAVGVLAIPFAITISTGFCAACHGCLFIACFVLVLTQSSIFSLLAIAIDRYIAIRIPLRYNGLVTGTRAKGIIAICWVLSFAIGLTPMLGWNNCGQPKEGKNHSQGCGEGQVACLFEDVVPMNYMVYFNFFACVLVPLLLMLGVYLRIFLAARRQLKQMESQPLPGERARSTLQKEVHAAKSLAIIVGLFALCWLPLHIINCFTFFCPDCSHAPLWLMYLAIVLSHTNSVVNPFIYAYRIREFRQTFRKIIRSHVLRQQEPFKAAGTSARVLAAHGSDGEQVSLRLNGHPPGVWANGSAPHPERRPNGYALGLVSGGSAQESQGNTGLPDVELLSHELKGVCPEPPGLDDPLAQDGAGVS
# Assay: A2a receptor competition binding assay using Scintillation Proximity technology
# Conditions: membranes from HEK293 cells expressing human A2a receptor; 0.5 nM tritiated radioligand; SPA beads; 1 h room temperature
# Procedure, shortened: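 Membranes of HEK293 cells expressing human A2a, pretreated with adenosine deaminase, incubated 1 h at room temperature with 0.5 nM tritiated pyrazolotriazolopyrimidine antagonist (final) and compound (3000 to 0.15 nM) on WGA SPA beads in Ca/Mg-free PBS with 10 mM MgCl2. Ki from EC50 via Cheng-Prusoff.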
row,EC50,SMILES
1,42.3 nM,Nc1nc2c(F)cccc2c2nc(CCN3Cc4cnc(C(F)(F)F)nc4C3)nn12 [Ex-88]
2,47.7 nM,Nc1nc2c(F)cccc2c2nc(CCN3Cc4cccc(F)c4C3)nn12 [Ex-89]
3,27.9 nM,"Cc1cccc2c1nc(N)n1nc(CCN3CCc4ccccc4C3)nc21 [Ex-90, 2-(2-(3,4-dihydroisoquinolin-2(1H)-yl)ethyl)-7-methyl-[1,2,4]triazolo[1,5-c]quinazolin-5-amine]"
4,26.1 nM,"Nc1nc2cc(F)ccc2c2nc(CCN3Cc4ccc(F)cc4C3)nn12 [Ex-91, 8-fluoro-2-[2-(5-fluoro-1,3-dihydro-2H-isoindol-2-yl)ethyl][1,2,4]triazolo[1,5-c]quinazolin-5-amine]"
5,73.7 nM,Nc1nc2cc(F)ccc2c2nc(CCN3Cc4cccnc4C3)nn12 [Ex-92]
6,37.5 nM,Nc1nc2cc(F)ccc2c2nc(CCN3CCc4ccccc4C3)nn12 [Ex-93]
7,27.3 nM,Nc1nc2cc(F)ccc2c2nc(CCN3CCCc4ccccc43)nn12 [Ex-94]
8,16.5 nM,CCc1nnc2n1CCN(CCc1nc3c4ccc(F)cc4nc(N)n3n1)C2 [Ex-95]
9,56.2 nM,Nc1nc2cc(F)ccc2c2nc(CCN3Cc4cccc(F)c4C3)nn12 [Ex-96]
10,238 nM,COc1ccc2c(nc(N)n3nc(CCN4Cc5cccnc5C4)nc23)c1OC [Ex-97]
11,19 nM,COc1cc(F)cc2c1nc(N)n1nc(CCN3Cc4cccnc4C3)nc21 [Ex-98]
12,112 nM,Nc1nc2cc(F)c(F)cc2c2nc(CCN3Cc4cccnc4C3)nn12 [Ex-99]
13,31.2 nM,Nc1nc2c(F)cc(F)cc2c2nc(CCN3Cc4cccnc4C3)nn12 [Ex-100]
14,55.2 nM,COc1cccc2c1nc(N)n1nc(C[C@H](C(F)F)N3Cc4cccnc4C3)nc21 [Ex-102]
15,8.3 nM,COc1cccc2c1nc(N)n1nc(C[C@@H](C(F)F)N3Cc4cccnc4C3)nc21 [Ex-103]
16,10.1 nM and 14.3 nM,COc1cccc2c1nc(N)n1nc(CC(CF)N3Cc4cccnc4C3)nc21 (stereo not shown) [Ex-104]
17,19.5 nM,COc1cccc2c1nc(N)n1nc(C[C@H](C)N3Cc4cccnc4C3)nc21 [Ex-106]
18,6.9 nM,COc1cccc2c1nc(N)n1nc(C[C@@H](C)N3Cc4cccnc4C3)nc21 [Ex-107]
19,17.9 nM,COc1cccc2c1nc(N)n1nc(CC(N3Cc4cccnc4C3)C(F)(F)F)nc21 (stereo not shown) [Ex-108]
20,12.2 nM,COc1cccc2c1nc(N)n1nc(C[C@H](N3Cc4cccnc4C3)C(F)(F)F)nc21 [Ex-109]
21,39.9 nM,COc1cccc2c1nc(N)n1nc(C[C@@H](N3Cc4cccnc4C3)C(F)(F)F)nc21 [Ex-110]
22,11.9 nM,CCC(Cc1nc2c3cccc(OC)c3nc(N)n2n1)N1Cc2cccnc2C1 (stereo not shown) [Ex-111]
23,4.9 nM,CC[C@H](Cc1nc2c3cccc(OC)c3nc(N)n2n1)N1Cc2cccnc2C1 [Ex-112]
24,22.8 nM,CC[C@@H](Cc1nc2c3cccc(OC)c3nc(N)n2n1)N1Cc2cccnc2C1 [Ex-113]
25,4.3 nM,COc1cccc2c1nc(N)n1nc(CC(C)N3Cc4ccc(F)cc4C3)nc21 (stereo not shown) [Ex-114]
26,21.6 nM,CCCC(Cc1nc2c3cccc(OC)c3nc(N)n2n1)N1Cc2cccnc2C1 (stereo not shown) [Ex-115]

row,EC50,SMILES
1,5.9 nM,"COc1cccc2c1nc(N)n1nc(CN3Cc4ccc(F)cc4C3)nc21 [Ex-117, 2-((5-fluoroisoindolin-2-yl)methyl)-7-methoxy-[1,2,4]triazolo[1,5-c]quinazolin-5-amine]"
2,5.4 nM,"COc1cccc2c1nc(N)n1nc(CN3Cc4cccnc4C3)nc21 [Ex-118, 2-((5H-pyrrolo[3,4-b]pyridin-6(7H)-yl)methyl)-7-methoxy-[1,2,4]triazolo[1,5-c]quinazolin-5-amine]"
3,2.1 nM,"COc1cccc2c1nc(N)n1nc(CN3CCCc4ccccc43)nc21 [Ex-119, 2-((3,4-dihydroquinolin-1(2H)-yl)methyl)-7-methoxy-[1,2,4]triazolo[1,5-c]quinazolin-5-amine]"
4,1.5 nM,"COc1cccc2c1nc(N)n1nc(CN3CCOc4ccccc43)nc21 [Ex-120, 2-((2H-benzo[b][1,4]oxazin-4(3H)-yl)methyl)-7-methoxy-[1,2,4]triazolo[1,5-c]quinazolin-5-amine]"
5,0.8 nM,COc1cccc2c1nc(N)n1nc(CN3CCc4ccccc4C3)nc21 [Ex-121]
6,6 nM,"COc1cccc2c1nc(N)n1nc(CN3CCc4cc(C#N)ccc4C3)nc21 [Ex-122, 2-((5-amino-7-methoxy-[1,2,4]triazolo[1,5-c]quinazolin-2-yl)methyl)-1,2,3,4-tetrahydroisoquinoline-6-carbonitrile]"
7,5.6 nM,"COc1cccc2c1nc(N)n1nc(CN3CCc4cccnc4C3)nc21 [Ex-123, 2-((5,6-dihydro-1,7-naphthyridin-7(8H)-yl)methyl)-7-methoxy-[1,2,4]triazolo[1,5-c]quinazolin-5-amine]"
8,27.3 nM,"COc1cccc2c1nc(N)n1nc(CN3CCc4ccncc4C3)nc21 [Ex-125, 2-((3,4-dihydro-2,7-naphthyridin-2(1H)-yl)methyl)-7-methoxy-[1,2,4]tri azolo[1,5-c]quinazolin-5-amine]"
9,31.6 nM,"COc1cccc2c1nc(N)n1nc(CN3CCc4cccc(CN5CCN(c6ccccn6)CC5)c4C3)nc21 [Ex-126, 7-methoxy-2-((8-((4-(pyridin-2-yl)piperazin-1-yl)methyl)-3,4-dihydroisoquinolin-2(1H)-yl)methyl)-[1,2,4]triazolo[1,5-c]quinazolin-5-amine]"
10,8.5 nM,"COc1cccc2c1nc(N)n1nc(CN3Cc4ccc(C(F)(F)F)cc4C3)nc21 [Ex-127, 7-methoxy-2-((2,3,4,5-(trifluoromethyl)isoindolin-2-yl)methyl)-[1,2,4]triazolo[1,5-c]quinazolin-5-amine]"
11,2 nM,"COc1cccc2c1nc(N)n1nc(CN3CCCCc4ccccc43)nc21 [Ex-128, 7-methoxy-2-((2,3,4,5-tetrahydro-1H-benzo[b]azepin-1-yl)methyl)-[1,2,4]biazolo[1,5-c]quinazolin-5-amine]"
12,40.8 nM,"COc1cccc2c1nc(N)n1nc(CN3CCc4ncc(C(F)(F)F)cc4C3)nc21 [Ex-129, 7-methoxy-2-((3-(trifluoromethyl)-7,8-dihydro-1,6-naphthyridin-6(5H)-yl)methyl)-[1,2,4]tria.zolo[1,5-c]quinazolin-5-amine]"
13,20.5 nM,"COc1cccc2c1nc(N)n1nc(CN3CCc4cc(F)ccc4C3)nc21 [Ex-130, 2-((6-fluoro-3,4-dihydroisoquinolin-2(1H)-yl)methyl)-7-methoxy-[1,2,4]triazolo[1,5-c]quinazolin-5-amine]"
14,16 nM,"COc1cccc2c1nc(N)n1nc(CN3CCc4ccccc4CC3)nc21 [Ex-131, 2-((4,5-dihydro-1H-benzo[d]azepin-3(2H)-yl)methyl)-7-methoxy-[1,2,4]triazolo[1,5-c]quinazolin-5-amine]"
15,7.9 nM,"COc1cccc2c1nc(N)n1nc(CN3CCCc4ccccc4C3)nc21 [Ex-132, 2-((4,5-dihydro-1H-benzo[c]azepin-2(3H)-yl)methyl)-7-methoxy-[1,2,4]triazolo[1,5-c]quinazolin-5-amine]"
16,27.8 nM,"COc1cccc2c1nc(N)n1nc(CN3CCCc4ncccc43)nc21 [Ex-133, 2-((3,4-dihydro-1,5-naphthyridin-1(2H)-yl)methyl)-7-methoxy-[1,2,4]triazolo[1,5-c]quinazolin-5-amine]"
17,6.7 nM,"COc1cccc2c1nc(N)n1nc(CN3CCCc4cnccc43)nc21 [Ex-134, 2-((3,4-dihydro-1,6-naphthyridin-1(2H)-yl)methyl)-7-methoxy-[1,2,4]triazolo[1,5-c]quinazolin-5-amine]"
18,11.8 nM,"COc1cccc2c1nc(N)n1nc(CN3CCCc4ccncc43)nc21 [Ex-135, 2-((3,4-dihydro-1,7-naphthyridin-1(2H)-yl)methyl)-7-methoxy-[1,2,4]triazolo[1,5-c]quinazolin-5-amine]"
19,191 nM,"COc1cccc2c1nc(N)n1nc(CN3CCN(C)Cc4cc(Cl)ccc43)nc21 [Ex-136, 2-((7-chloro-4-methyl-2,3,4,5-tetrahydro-1H-benzo[e][1,4]diazepin-1-yl)methyl)-7-methoxy-[1,2,4]triazolo[1,5-c]quinazolin-5-amine]"
20,16.1 nM,COc1cccc2c1nc(N)n1nc(CN3Cc4ccc(Cl)nc4C3)nc21 [Ex-137]
21,146 nM,COc1cccc2c1nc(N)n1nc(CN3CCn4c(nnc4SC)C3)nc21 [Ex-138]
22,110 nM,"CCOC(=O)c1nnc2n1CCN(Cc1nc3c4cccc(OC)c4nc(N)n3n1)C2 [Ex-139, ethyl 7-((5-amino-7-methoxy-[1,2,4]triazolo[1,5-c]quinazolin-2-yl)methyl)-5,6,7,8-tetrahydro-[1,2,4]triazolo[4,3-a]pyrazine-3-carboxylate]"
23,104 nM,"COc1cccc2c1nc(N)n1nc(CN3CCn4c(Br)nnc4C3)nc21 [Ex-140, 2-((3-bromo-5,6-dihydro-[1,2,4]triazolo[4,3-a]pyrazin-7(8H)-yl)methyl)-7-methoxy-[1,2,4]triazolo[1,5-c]quinazolin-5-amine]"
24,149 nM,"COc1cccc2c1nc(N)n1nc(CN3CCn4cnnc4C3)nc21 [Ex-141, 2-((5-dihydro-[1,2,4]triazolo[4,3-a]pyrazin-7(8H)-yl)methyl)-7-methoxy-[1,2,4]triazolo[1,5-c]quinazolin-5-amine]"
25,350 nM,"CCc1nnc2n1CCN(Cc1nc3c4cccc(OC)c4nc(N)n3n1)C2 [Ex-142, 2-((3-ethyl-5,6-dihydro-[1,2,4]triazolo[4,3-a]pyrazin-7(8H)-yl)methyl)-7-methoxy-[1,2,4]triazolo[1,5-c]quinazolin-5-amine]"
26,74.4 nM,"COc1cccc2c1nc(N)n1nc(CN3CCn4c(nnc4C(=O)NC(C)(C)C)C3)nc21 [Ex-143, 7-((5-amino-7-methoxy-[1,2,4]triazolo[1,5-c]quinazolin-2-yl)methyl)-N-tert-butyl-5,6,7,8-tetrahydro-[1,2,4]triazolo[4,3-a]pyrazine-3-carboxamide]"
